“And” between values parts separate entries of the source, which are not always exact repeats. Identical values can stand only once. After the bases stand the sugars from the 5' end (letter, count) and the backbone: PS all phosphorothioate, else s phosphorothioate and o phosphodiester by linkage. Methylation of C is not given here. e = 2'-O-(2-methoxyethyl) (MOE); k = constrained ethyl (cEt); d = 2'-deoxy (DNA)
Molecular target: IRF5
Details: ASO

Sequence | target mRNA inhibition (KARPAS-229, 4 µM) | also measured
CTTCTGCAGGGAGTCA (sugars kkdddddddddkdkdk, PS) | 0% | –
CATTCCATATACACAC (sugars kkdddddddddkdkdk, PS) | 25% | –
CTTGGTCTTGACCTCC (sugars kkdddddddddkekek, PS) | 3% | –
GCTTGGTCTTGACCTC (sugars kkkddddddddkdkdk, PS) | 30% | –
GGTGTATTTCCCTGTC (sugars k3 d9 k3 e1, PS) | 0% | –
GTTATCTCCGTCCTGG (sugars kekdddddddddeekk, PS) | 13% | –
CTTGGTCTTGACCTCC (sugars kkkddddddddkekek, PS) | 1% | –
GAGACGAGCAAAGGGT (sugars k3 d10 k3, PS) | 40% | –
CACTGACACAGGCGGA (sugars kkddddddddkekekk, PS) | 0% | –
CAGGTTCTTGGACTCT (sugars kkkddddddddkekek, PS) | 0% | –
CTGATATGATACCTAA (sugars k3 d1 k1 d8 k3, PS) | – | target mRNA inhibition (A-431, 0.00412 µM): 20%; target mRNA inhibition (A-431, 0.01225 µM): 29%; target mRNA inhibition (A-431, 0.03704 µM): 38%; target mRNA inhibition (A-431, 0.11111 µM): 64%; target mRNA inhibition (A-431, 0.33333 µM): 83%; target mRNA inhibition (A-431, 1 µM): 83%
GTCTTGACCTCCCGCT (sugars k2 d8 e4 k2, PS) | 34% | –
AGACGAGCAAAGGGTG (sugars k3 d10 k3, PS) | 35% | –
CCCAATGCAACATCCA (sugars kkkddddddddkdkdk, PS) | 0% | –
GGAGTGAGACGAGCAA (sugars kkkddddddddkekek, PS) | 5% | –
AGGTTCTTGGACTCTC (sugars kddddddddddkekek, PS) | 34% | –
ATCACCACTGTGTACC (sugars kkdddddddddkekek, PS) | 0% | –
CTTGGTCTTGACCTCC (sugars kkddddddddddkeke, PS) | 39% | –
AGGAAGTGAGTCTCAA (sugars kkdddddddddkekek, PS) | 42% | –
ATGAGTCATGGGCTGA (sugars kkdddddddddkekek, PS) | 0% | –
ACTGACACAGGCGGAT (sugars kkdddddddddkdkdk, PS) | 6% | –
TGCACTGACACAGGCG (sugars k3 d9 k3 e1, PS) | 0% | –
CTGTCACATCTCCACA (sugars kkddddddddkekekk, PS) | 0% | –
TCCAATTTTGCATTCC (sugars kkkdddddddddkeke, PS) | 14% | –

Sequence | target mRNA inhibition (KARPAS-229, 4 µM) | also measured
ATGAGTCATGGGCTGA (sugars kddddddddddkekek, PS) | 0% | –
CACTGACACAGGCGGA (sugars k3 d10 k3, PS) | 1% and 0% | –
CTTCTGCAGGGAGTCA (sugars kkkddddddddkekek, PS) | 0% | –
AAGGGCACAGCGCAGG (sugars kkddddddddkekekk, PS) | 0% | –
CTTGGTCTTGACCTCC (sugars kkdddddddddkdkdk, PS) | 13% | –
GTGAGTCTCAAACCAG (sugars kkdddddddddkekek, PS) | 0% | –
GTGACTGTATTACCTA (sugars k3 d10 k3, PS) | 62% and 70% | target mRNA inhibition (KARPAS-229, 0.44444 µM): 9%; target mRNA inhibition (KARPAS-229, 1.33333 µM): 39%; target mRNA inhibition (KARPAS-229, 12 µM): 81%
GCTTGGTCTTGACCTC (sugars kkddddddddddkeke, PS) | 9% | –
GGTTCTTGGACTCTCA (sugars kkkddddddddkdkdk, PS) | 28% | –
TCCAATTTTGCATTCC (sugars kkkddddddddkdkdk, PS) | 32% | –
CCACTGTGTACCCCAT (sugars kkddddddddkekekk, PS) | 0% | –
TGAGTCATGGGCTGAG (sugars k3 d10 k3, PS) | 0% | –
GAGTCATGGGCTGAGG (sugars kkdddddddddkdkdk, PS) | 31% | –
GGAAGTGAGTCTCAAA (sugars kkdddddddddkekek, PS) | 25% | –
TCTGGCCCTTTTGGAA (sugars kkddddddddkekekk, PS) | 0% | –
TGAGTCATGGAGCTGAG (sugars k2 d9 e3 k2 d1, PS) | 16% | –
GTCTTGACCTCCCGCT (sugars k2 d9 e3 k2, PS) | 54% and 41% | target mRNA inhibition (KARPAS-229, 0.44444 µM): 22%; target mRNA inhibition (KARPAS-229, 1.33333 µM): 32%; target mRNA inhibition (KARPAS-229, 12 µM): 58%
GGTCTGGCCCTTTTGG (sugars kddddddddddkekek, PS) | 0% | –
CTGACACAGGCGGATG (sugars kkddddddddkekekk, PS) | 0% | –
AGGAAGTGAGTCTCAA (sugars kkddddddddddkeke, PS) | 39% | –
GGTGTATTTCCCTGTC (sugars kdddddddddkekeke, PS) | 0% | –
GGTCTGGCCCTTTTGG (sugars kkddddddddddkeke, PS) | 0% | –
AGCTTGGTCTTGACCT (sugars k3 d10 k3, PS) | – | target mRNA inhibition (KARPAS-229, 0.44444 µM): 33%; target mRNA inhibition (KARPAS-229, 1.33333 µM): 41%; target mRNA inhibition (KARPAS-229, 12 µM): 55%

Reference: the OligoGym collection
